The source made the active and inactive calls. The rule behind the calls is not given here.
Experiments:
MCF7 [1] = experiment: Induction of senescence in human MCF7 cells expressing wild type p53 at 4 uM after 24 hrs by Western blot analysis; assay type: functional, cell-based
MCF7 [2] = experiment: Induction of senescence in human MCF7 cells assessed as blue colotation and adopted a flattened morphology with spread out cytoplasm at 4 uM after 72 hrs by SA-beta-gal assay; assay type: functional, cell-based
MCF7 [3] = experiment: Cell cycle arrest in human MCF7 cells assessed as accumulation at G2/M phase at 4 uM after 24 hrs using propidium iodide staining by FACS analysis (reference value: 19%); assay type: functional
MCF7 [4] = experiment: Cell cycle arrest in human MCF7 cells assessed as accumulation at S phase at 4 uM after 24 hrs using propidium iodide staining by FACS analysis (reference value: 11%); assay type: functional
MCF7 [5] = experiment: Cell cycle arrest in human MCF7 cells assessed as accumulation at G1 phase at 4 uM after 24 hrs using propidium iodide staining by FACS analysis (reference value: 70%); assay type: functional
[6] = Cytotoxicity against human MCF10A cells assessed as cell viability after 48 hrs by MTT assay; assay type: cell-based; details: MCF-10A
COLO 205 = experiment: Cytotoxicity against human COLO205 cells assessed as cell viability after 48 hrs by MTT assay; assay type: functional, cell-based; details: COLO 205, 48 h
[7] = Cytotoxicity against human MIAPaCa2 cells assessed as cell viability after 48 hrs by MTT assay; assay type: functional, cell-based; details: MIA PaCa-2, 48 h
A549 = experiment: Cytotoxicity against human A549 cells assessed as cell viability after 48 hrs by MTT assay; assay type: functional, cell-based; details: A549, 48 h
MDA-MB-231 [8] = experiment: Cytotoxicity against human MDA-MB-231 cells assessed as cell viability after 48 hrs by MTT assay; assay type: functional, cell-based; details: MDA-MB-231, 48 h
MCF7 [9] = experiment: Cytotoxicity against human MCF7 cells assessed as cell viability after 48 hrs by MTT assay; assay type: functional, cell-based; details: MCF7, 48 h
MCF7 [10] = experiment: Cytotoxicity against human MCF7 cells assessed as cell viability at 4 uM after 48 hrs by MTT assay; assay type: functional
MCF7 [11] = experiment: Cytotoxicity against human MCF7 cells assessed as cell viability at 2 uM after 48 hrs by MTT assay; assay type: functional
[12] = molecular target: Telomerase reverse transcriptase (Homo sapiens) (UniProt O14746); experiment: Inhibition of telomerase activity in human MCF7 cells assessed as un-repairable DNA damage at 4 uM after 24 hrs; assay type: cell-based
Sequence of Telomerase reverse transcriptase (Homo sapiens) (O14746 whole entry): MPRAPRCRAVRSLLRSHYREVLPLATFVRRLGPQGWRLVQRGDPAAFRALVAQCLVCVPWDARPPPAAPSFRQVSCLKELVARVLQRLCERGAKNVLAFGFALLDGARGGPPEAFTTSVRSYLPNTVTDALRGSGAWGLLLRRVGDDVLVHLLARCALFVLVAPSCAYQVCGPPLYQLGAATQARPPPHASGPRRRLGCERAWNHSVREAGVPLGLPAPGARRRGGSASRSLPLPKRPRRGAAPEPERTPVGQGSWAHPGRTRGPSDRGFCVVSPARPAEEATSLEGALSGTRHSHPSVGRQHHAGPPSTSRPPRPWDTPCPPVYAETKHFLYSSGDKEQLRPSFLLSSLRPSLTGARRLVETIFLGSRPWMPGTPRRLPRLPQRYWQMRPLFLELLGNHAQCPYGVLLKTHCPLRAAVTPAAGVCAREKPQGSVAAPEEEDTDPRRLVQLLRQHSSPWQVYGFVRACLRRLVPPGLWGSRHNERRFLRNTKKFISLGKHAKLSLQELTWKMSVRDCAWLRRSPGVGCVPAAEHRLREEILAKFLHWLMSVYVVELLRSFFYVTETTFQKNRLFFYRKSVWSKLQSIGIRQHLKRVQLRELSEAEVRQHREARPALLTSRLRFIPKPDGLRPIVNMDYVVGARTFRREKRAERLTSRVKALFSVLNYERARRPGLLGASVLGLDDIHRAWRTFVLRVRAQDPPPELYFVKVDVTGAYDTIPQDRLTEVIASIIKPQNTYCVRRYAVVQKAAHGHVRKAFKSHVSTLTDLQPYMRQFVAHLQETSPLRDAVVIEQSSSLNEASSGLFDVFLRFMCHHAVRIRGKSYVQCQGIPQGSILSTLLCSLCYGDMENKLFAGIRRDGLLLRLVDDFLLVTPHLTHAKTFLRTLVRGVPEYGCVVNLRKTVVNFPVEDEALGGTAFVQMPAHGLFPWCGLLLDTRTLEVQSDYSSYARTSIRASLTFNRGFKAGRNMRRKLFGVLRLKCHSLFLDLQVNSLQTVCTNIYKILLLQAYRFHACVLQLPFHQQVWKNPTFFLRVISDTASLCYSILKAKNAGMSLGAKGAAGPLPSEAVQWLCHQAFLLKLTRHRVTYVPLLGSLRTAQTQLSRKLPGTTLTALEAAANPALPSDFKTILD

MCF7 [13] = experiment: Induction of DNA damage in human MCF7 cells assessed as increase in gamma H2AX level measured at 4 uM after 24 hrs by Western blot analysis; assay type: functional, cell-based
MCF7 [14] = experiment: Induction of DNA damage in human MCF7 cells assessed as decrease in TRF2 level measured at 4 uM after 24 hrs by Western blot analysis; assay type: functional, cell-based
MCF7 [15] = experiment: Induction of DNA damage in human MCF7 cells assessed as increase in POT1 level measured at 4 uM after 24 hrs by Western blot analysis; assay type: functional, cell-based
MCF7 [16] = experiment: Induction of DNA damage in human MCF7 cells assessed as increase in TRF1 level measured at 4 uM after 24 hrs by Western blot analysis; assay type: functional, cell-based
HCT-116 [17] = experiment: Induction of senescence in human HCT116 cells assessed as increase in p16 expression at 4 uM after 24 hrs by Western blot analysis; assay type: functional, cell-based
SW116 = experiment: Induction of senescence in human SW116 cells assessed as increase in p21 expression at 4 uM after 24 hrs by Western blot analysis; assay type: functional, cell-based
HCT-116 [18] = experiment: Induction of senescence in human HCT116 cells assessed as increase in p21 expression at 4 uM after 24 hrs by Western blot analysis; assay type: functional, cell-based
MCF7 [19] = experiment: Induction of senescence in human MCF7 cells assessed as decrease in SKP2 expression at 4 uM after 24 hrs by Western blot analysis; assay type: functional, cell-based
MCF7 [20] = experiment: Induction of senescence in human MCF7 cells assessed as increase in p16 expression at 4 uM after 24 hrs by Western blot analysis; assay type: functional, cell-based
MCF7 [21] = experiment: Induction of senescence in human MCF7 cells assessed as increase in p21 expression at 4 uM after 24 hrs by Western blot analysis; assay type: functional, cell-based
MCF7 [22] = experiment: Induction of senescence in human MCF7 cells assessed as increase in p53 expression at 4 uM after 24 hrs by Western blot analysis; assay type: functional, cell-based
MDA-MB-231 [23] = experiment: Induction of senescence in human MDA-MB-231 cells expressing mutant p53 at 4 uM after 24 hrs by Western blot analysis; assay type: functional, cell-based
[24] = molecular target: Telomerase reverse transcriptase (Homo sapiens) (UniProt O14746); experiment: Inhibition of telomerase activity in human A549 cells at 4 uM after 24 hrs by TRAP eze XL telomerase assay
MCF7 (Homo sapiens) = experiment: Induction of senescence in human MCF7 cells assessed as increase in p16 expression at 4 uM after 24 hrs by Western blot analysis

Cc1cc(C#Cc2ccc(C(C)(C)C)cc2)ccc1-n1c(/C=C/c2ccnc3ccccc23)nc2ccccc2c1=O
Activity (MCF7 [1]): Active
Activity (MCF7 [2]): Active
Activity (MCF7 [3]): 4%
Activity (MCF7 [4]): 2%
Activity (MCF7 [5]): 94%
IC50 [6]: 28 µM
IC50 (COLO 205): 5.44 µM
IC50 [7]: 5.21 µM
IC50 (A549): 5.87 µM
IC50 (MDA-MB-231 [8]): 5.44 µM
IC50 (MCF7 [9]): 2.45 µM
OD (MCF7 [10]): 0.24
OD (MCF7 [11]): 0.59
inhibition [12]: Active
Activity (MCF7 [13]): Active
inhibition (MCF7 [14]): Active
Activity (MCF7 [15]): Active
Activity (MCF7 [16]): Active
Activity (HCT-116 [17]): Active
Activity (SW116): Active
Activity (HCT-116 [18]): Active
inhibition (MCF7 [19]): Active
Activity (MCF7 [20]): Active
Activity (MCF7 [21]): Active
Activity (MCF7 [22]): Active
Activity (MDA-MB-231 [23]): inactive
inhibition [24]: Active
Activity (MCF7 (Homo sapiens)): Active

COc1cccc2c1C(=O)c1c(O)c3c(c(O)c1C2=O)C[C@@](O)(C(=O)CO)C[C@@H]3O[C@H]1C[C@H](N)[C@H](O)[C@H](C)O1 [DOXORUBICIN]
Activity (MCF7 [1]): Active
Activity (MCF7 [3]): 16%
Activity (MCF7 [4]): 2%
Activity (MCF7 [5]): 82%
IC50 [6]: 31 µM
IC50 (COLO 205): 0.37 µM
IC50 [7]: 0.14 µM
IC50 (A549): 0.73 µM
IC50 (MDA-MB-231 [8]): 0.16 µM
IC50 (MCF7 [9]): 0.1 µM
Activity (HCT-116 [17]): Active
Activity (SW116): Active
Activity (HCT-116 [18]): Active
inhibition (MCF7 [19]): Active
Activity (MCF7 [20]): Active
Activity (MCF7 [21]): Active
Activity (MCF7 [22]): Active
Activity (MDA-MB-231 [23]): inactive
Activity (MCF7 (Homo sapiens)): Active

COc1ccc(/C=C/c2nc3ccccc3c(=O)n2-c2ccc(C#Cc3ccc(C(C)(C)C)cc3)cc2C)cc1O
Activity (MCF7 [3]): 5%
Activity (MCF7 [4]): 4%
Activity (MCF7 [5]): 91%
IC50 [6]: 12 µM
IC50 (COLO 205): 5.19 µM
IC50 [7]: 6.8 µM
IC50 (A549): 5.74 µM
IC50 (MDA-MB-231 [8]): 5.69 µM
IC50 (MCF7 [9]): 3.88 µM
OD (MCF7 [10]): 0.27
OD (MCF7 [11]): 0.84
inhibition [12]: Active
Activity (MCF7 [13]): Active
inhibition (MCF7 [14]): Active
Activity (MCF7 [15]): Active
Activity (MCF7 [16]): Active
Activity (HCT-116 [17]): Active
Activity (SW116): Active
Activity (HCT-116 [18]): Active
inhibition (MCF7 [19]): Active
Activity (MCF7 [20]): Active
Activity (MCF7 [21]): Active
Activity (MCF7 [22]): Active
Activity (MCF7 (Homo sapiens)): Active

Cc1cc(C#Cc2ccc(C(C)(C)C)cc2)ccc1-n1c(/C=C/c2c(Cl)cccc2Cl)nc2ccccc2c1=O
Activity (MCF7 [1]): Active
Activity (MCF7 [2]): Active
Activity (MCF7 [3]): 5%
Activity (MCF7 [4]): 2%
Activity (MCF7 [5]): 93%
IC50 [6]: 15 µM
IC50 (COLO 205): 4.85 µM
IC50 [7]: 5.29 µM
IC50 (A549): 5.6 µM
IC50 (MDA-MB-231 [8]): 5.44 µM
IC50 (MCF7 [9]): 2.27 µM
OD (MCF7 [10]): 0.39
OD (MCF7 [11]): 0.77
inhibition [12]: Active
Activity (MCF7 [13]): Active
inhibition (MCF7 [14]): Active
Activity (MCF7 [15]): Active
Activity (MCF7 [16]): Active
Activity (HCT-116 [17]): Active
Activity (SW116): Active
Activity (HCT-116 [18]): Active
inhibition (MCF7 [19]): Active
Activity (MCF7 [20]): Active
Activity (MCF7 [21]): Active
Activity (MCF7 [22]): Active
Activity (MDA-MB-231 [23]): inactive
inhibition [24]: Active
Activity (MCF7 (Homo sapiens)): Active

From ChEMBL document CHEMBL3217459, “3-Diarylethyne quinazolinones: a new class of senescence inducers” (Medchemcomm, 2013)
